Experimental data published in article PMC9213889 (Frontiers in Chemistry, 2022).

What was measured:
[1] = molecular target: α-glucosidase from Saccharomyces cerevisiae (EC 3.2.1.20) (Saccharomyces cerevisiae, UniProt P53341); assay: biochemical; type: biochemical; conditions: for IC50: mean ± SD, quadruplicate, PBS pH 6.8, 37°C, 5% DMSO, read-out: α-glucosidase inhibition (IC50 μM)
[2] = molecular target: T1, α-amylase from hog pancreas (EC 3.2.1.1) (Sus scrofa, UniProt P00690); assay: α-amylase inhibition assay (starch, DNS, absorbance at 540 nm)
T1 sequence (P00690 16-511): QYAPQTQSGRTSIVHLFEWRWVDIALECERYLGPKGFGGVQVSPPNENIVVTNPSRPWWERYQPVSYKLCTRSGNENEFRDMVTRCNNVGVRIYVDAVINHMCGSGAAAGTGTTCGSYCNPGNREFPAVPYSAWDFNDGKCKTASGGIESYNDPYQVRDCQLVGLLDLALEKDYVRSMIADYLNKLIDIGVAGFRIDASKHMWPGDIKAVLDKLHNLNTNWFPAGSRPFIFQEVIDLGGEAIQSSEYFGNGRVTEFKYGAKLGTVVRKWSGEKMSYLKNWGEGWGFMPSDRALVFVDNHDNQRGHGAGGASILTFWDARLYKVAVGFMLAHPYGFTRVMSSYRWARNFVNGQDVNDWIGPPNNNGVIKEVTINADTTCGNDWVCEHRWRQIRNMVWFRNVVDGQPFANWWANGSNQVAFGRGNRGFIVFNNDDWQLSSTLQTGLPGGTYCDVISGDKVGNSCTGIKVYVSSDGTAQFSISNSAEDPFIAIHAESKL

α-glucosidase = molecular target: T2, α-glucosidase (Saccharomyces cerevisiae, UniProt P53341); assay: Inhibition kinetics assay against α-glucosidase; type: biochemical
T2 construct: purchased Sigma-Aldrich
Protocol: The α-glucosidase inhibition assay of analogs 4a–4s was carried out as in previously reported methods, with minor modifications ([Xu et al., 2020]). Then, 10 μL α-glucosidase and 10 μL test sample (dissolved in DMSO) were added into 130 μL PBS (50 mM phosphate saline buffer, pH 6.8) and incubated for 10 min at 37°C. After adding 50 μL pNPG, the absorbance change of the mixture at 405 nm was monitored. Then, the percent inhibition was calculated ([Ademiluyi and Oboh, 2013]). All experiments were carried out in quadruplicate.
(§1) The inhibition kinetics of 4i and 4o against α-glucosidase and α-amylase, respectively, was investigated using a similar aforementioned inhibition assay method. The enzyme inhibitory kinetics was obtained by the plots of the enzymatic reaction rate vs. enzyme concentration with or without the inhibitor, and the substrate inhibitory kinetics was measured using the Lineweaver–Burk plot of the enzymatic reaction rate vs. substrate concentration with or without the inhibitor.

HepG2 cells = assay: Cell cytotoxicity assay, HepG2; type: cell-based; conditions: under a concentration of 100 μM
3T3-L1 cells = assay: Cell cytotoxicity assay, 3T3-L1; type: cell-based; conditions: under a concentration of 100 μM
α-amylase = molecular target: T3, α-amylase (Sus scrofa, UniProt P00690); assay: Inhibition kinetics assay against α-amylase; type: biochemical, hog
T3 construct: α-amylase from hog pancreas (EC 3.2.1.1); purchased Sigma-Aldrich; host or cells: hog pancreas
T3 sequence (P00690 16-511): T1 sequence (P00690 16-511)
Protocol: All experiments were carried out in quadruplicate.
as §1

[3] = plots of enzymatic reaction rate vs. enzyme concentration pass through the origin

α-glucosidase from Saccharomyces cerevisiae (EC 3.2.1.20), sequence (P53341 whole entry): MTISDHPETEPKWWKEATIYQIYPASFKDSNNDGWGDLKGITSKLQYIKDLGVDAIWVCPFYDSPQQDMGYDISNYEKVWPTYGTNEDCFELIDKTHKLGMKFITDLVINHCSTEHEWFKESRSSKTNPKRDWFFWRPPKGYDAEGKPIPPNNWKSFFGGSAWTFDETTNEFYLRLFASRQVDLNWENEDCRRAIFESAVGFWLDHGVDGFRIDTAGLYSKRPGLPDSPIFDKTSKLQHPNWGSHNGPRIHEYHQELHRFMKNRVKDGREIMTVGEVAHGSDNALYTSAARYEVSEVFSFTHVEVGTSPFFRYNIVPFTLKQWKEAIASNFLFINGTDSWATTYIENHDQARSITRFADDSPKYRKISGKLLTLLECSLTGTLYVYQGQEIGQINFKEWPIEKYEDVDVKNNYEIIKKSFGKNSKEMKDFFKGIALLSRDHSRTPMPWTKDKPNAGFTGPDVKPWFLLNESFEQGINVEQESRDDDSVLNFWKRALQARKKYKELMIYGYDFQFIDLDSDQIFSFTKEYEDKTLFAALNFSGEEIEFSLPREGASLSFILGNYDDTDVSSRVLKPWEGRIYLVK
T2 sequence (P53341 whole entry): as above

Row | IC50 [1] [µM] | IC50 [2] [µM] | melting point [°C] | SMILES | further results
1 | 1.9 ± 0.31 | 41.2 ± 2.99 | – | CC1(C)CC[C@]2(C(=O)O)CC[C@]3(C)C(=CCC4[C@@]5(C)C/C(=C\c6ccccc6)[C@H](O)C(C)(C)C5CC[C@]43C)C2C1 (some centres unmarked) [Compound 4a] | –
2 | 0.61 ± 0.09 | 19.8 ± 1.22 | 210 to 211 | Cc1ccccc1/C=C1\C[C@@]2(C)C(CC[C@]3(C)C2CC=C2C4CC(C)(C)CC[C@]4(C(=O)O)CC[C@]23C)C(C)(C)[C@H]1O (some centres unmarked) [Compound 4b] | –
3 | 0.86 ± 0.05 | 51.1 ± 2.55 | 128 to 129 | Cc1cccc(/C=C2\C[C@@]3(C)C(CC[C@]4(C)C3CC=C3C5CC(C)(C)CC[C@]5(C(=O)O)CC[C@]34C)C(C)(C)[C@H]2O)c1 (some centres unmarked) [Compound 4c] | –
4 | 2.41 ± 0.08 | 62.2 ± 1.89 | 146 to 147 | Cc1ccc(/C=C2\C[C@@]3(C)C(CC[C@]4(C)C3CC=C3C5CC(C)(C)CC[C@]5(C(=O)O)CC[C@]34C)C(C)(C)[C@H]2O)cc1 (some centres unmarked) [Compound 4d] | –
5 | 1.92 ± 0.13 | 20.5 ± 2.29 | 200 to 201 | COc1ccccc1/C=C1\C[C@@]2(C)C(CC[C@]3(C)C2CC=C2C4CC(C)(C)CC[C@]4(C(=O)O)CC[C@]23C)C(C)(C)[C@H]1O (some centres unmarked) [Compound 4e] | –
6 | 1.63 ± 0.1 | 60.3 ± 1.88 | 200 to 201 | COc1cccc(/C=C2\C[C@@]3(C)C(CC[C@]4(C)C3CC=C3C5CC(C)(C)CC[C@]5(C(=O)O)CC[C@]34C)C(C)(C)[C@H]2O)c1 (some centres unmarked) [Compound 4f] | –
7 | 3.96 ± 0.21 | 59.1 ± 1.98 | 296 to 297 | COc1ccc(/C=C2\C[C@@]3(C)C(CC[C@]4(C)C3CC=C3C5CC(C)(C)CC[C@]5(C(=O)O)CC[C@]34C)C(C)(C)[C@H]2O)cc1 (some centres unmarked) [Compound 4g] | –
8 | 0.83 ± 0.04 | 18.5 ± 1.39 | 165 to 166 | CC1(C)CC[C@]2(C(=O)O)CC[C@]3(C)C(=CCC4[C@@]5(C)C/C(=C\c6ccccc6F)[C@H](O)C(C)(C)C5CC[C@]43C)C2C1 (some centres unmarked) [Compound 4h] | –
9 | 1.23 ± 0.07 | 15.7 ± 1.53 | 226 to 227 | CC1(C)CC[C@]2(C(=O)O)CC[C@]3(C)C(=CCC4[C@@]5(C)C/C(=C\c6ccc(F)cc6)[C@H](O)C(C)(C)C5CC[C@]43C)C2C1 (some centres unmarked) [Compound 4j] | –
10 | 0.88 ± 0.04 | 45.4 ± 2.16 | 219 to 220 | CC1(C)CC[C@]2(C(=O)O)CC[C@]3(C)C(=CCC4[C@@]5(C)C/C(=C\c6ccccc6Cl)[C@H](O)C(C)(C)C5CC[C@]43C)C2C1 (some centres unmarked) [Compound 4k] | –
11 | 0.45 ± 0.02 | 19.4 ± 0.73 | 242 to 243 | CC1(C)CC[C@]2(C(=O)O)CC[C@]3(C)C(=CCC4[C@@]5(C)C/C(=C\c6cccc(Cl)c6)[C@H](O)C(C)(C)C5CC[C@]43C)C2C1 (some centres unmarked) [Compound 4l] | –
12 | 1.73 ± 0.16 | 20.5 ± 1.09 | 196 to 197 | CC1(C)CC[C@]2(C(=O)O)CC[C@]3(C)C(=CCC4[C@@]5(C)C/C(=C\c6ccc(Cl)cc6)[C@H](O)C(C)(C)C5CC[C@]43C)C2C1 (some centres unmarked) [Compound 4m] | –
13 | 0.72 ± 0.06 | 16.8 ± 1.04 | 234 to 235 | CC1(C)CC[C@]2(C(=O)O)CC[C@]3(C)C(=CCC4[C@@]5(C)C/C(=C\c6ccccc6Br)[C@H](O)C(C)(C)C5CC[C@]43C)C2C1 (some centres unmarked) [Compound 4n] | –
14 | 0.52 ± 0.02 | 9.59 ± 0.58 | 197 to 198 | CC1(C)CCC2(C(=O)O)CCC3(C)C(=CCC4C5(C)CC(=Cc6cccc(Br)c6)C(O)C(C)(C)C5CCC43C)C2C1 (centres unmarked) [Compound 4o] | Inhibition type against α-amylase (α-amylase; Lineweaver–Burk plots, lines intersect in the first quadrant): mixed-type inhibitor; Reversibility of inhibition on α-amylase (α-amylase; [3]): reversible; Cell cytotoxicity against HepG2 cells (HepG2 cells): non-cytotoxic effect; Cell cytotoxicity against 3T3-L1 cells (3T3-L1 cells): non-cytotoxic effect
15 | 1.18 ± 0.14 | 19.5 ± 1.85 | 224 to 225 | CC1(C)CC[C@]2(C(=O)O)CC[C@]3(C)C(=CCC4[C@@]5(C)C/C(=C\c6ccc(Br)cc6)[C@H](O)C(C)(C)C5CC[C@]43C)C2C1 (some centres unmarked) [Compound 4p] | –
16 | 1.17 ± 0.1 | 20.2 ± 1.2 | 197 to 198 | CC1(C)CC[C@]2(C(=O)O)CC[C@]3(C)C(=CCC4[C@@]5(C)C/C(=C\c6ccccc6[N+](=O)[O-])[C@H](O)C(C)(C)C5CC[C@]43C)C2C1 (some centres unmarked) [Compound 4q] | –
17 | 1.08 ± 0.04 | 20.8 ± 1.88 | 191 to 192 | CC1(C)CC[C@]2(C(=O)O)CC[C@]3(C)C(=CCC4[C@@]5(C)C/C(=C\c6cccc([N+](=O)[O-])c6)[C@H](O)C(C)(C)C5CC[C@]43C)C2C1 (some centres unmarked) [Compound 4r] | –
18 | 1.22 ± 0.14 | 55.6 ± 2.52 | 219 to 220 | CC1(C)CC[C@]2(C(=O)O)CC[C@]3(C)C(=CCC4[C@@]5(C)C/C(=C\c6ccc([N+](=O)[O-])cc6)[C@H](O)C(C)(C)C5CC[C@]43C)C2C1 (some centres unmarked) [Compound 4s] | –

Row | SMILES | IC50 [1] [µM] | IC50 [2] [µM] | melting point [°C] | further results
19 | CC1(C)CC[C@]2(C(=O)O)CC[C@]3(C)C(=CCC4[C@@]5(C)C/C(=C\c6cccc(F)c6)[C@H](O)C(C)(C)C5CC[C@]43C)C2C1 (some centres unmarked) [Compound 4i] | 0.4 ± 0.02 | 20.3 ± 2.18 | 157 to 158 | α-glucosidase inhibition, times stronger than acarbose [1]: ~1,663 times; Inhibition type against α-glucosidase (α-glucosidase; Lineweaver–Burk plots, lines intersect in the second quadrant): mixed-type inhibitor; Reversibility of inhibition on α-glucosidase (α-glucosidase; [3]): reversible; Cell cytotoxicity against HepG2 cells (HepG2 cells): non-cytotoxic effect; Cell cytotoxicity against 3T3-L1 cells (3T3-L1 cells): non-cytotoxic effect
